Converted amounts (≈) assume the structure as drawn. Read-outs that look alike come from different tables or passages of the source. Marks after values point to notes of the source that are not given here.
Key:
HDAC6 = conditions: cited from earlier work; for IC50: read-out: HDAC6 IC50, NI = No Inhibition at maximum tested concentration of 10 µM (percentage inhibition < 20%); for HDAC6 % inhibition at 10 µM: given if the IC50 was above 10 µM
HDAC8 = conditions: read-out: HDAC8 IC50; NI = No Inhibition at maximum tested concentration of 10 µM (percentage inhibition < 20%); cited from earlier work
[1] = test system: promastigote stage of L. donovani; experiment: Alamar blue
[2] = Cytotoxicity to uninfected THP1 macrophage cells; conditions: human
[3] = test system: Intra-macrophage Amastigote Stage of L. donovani; experiment: Amastigote-macrophage assay; conditions: for Cytotoxic activity against intra-macrophage amastigote (in words): THP1 host cells, 3HP values in Table S1 (not available); for Potency enhancement, intra-macrophage amastigote relative to axenic amastigote: comparing Tables 1 and 2
[4] = test system: Intra-macrophage Amastigote Stage of L. donovani
in vitro = conditions: human
[5] = test system: axenic amastigote of L. donovani; experiment: Alamar blue; type: cell-based
[6] = L. donovani promastigote, maximum concentration tested 40 µg/mL
[7] = uninfected THP1 macrophage cells
[8] = L. donovani axenic amastigote, maximum tested concentration 40 µg/mL

| Structure (SMILES) | IC50 (HDAC6) [nM] | IC50 (HDAC8) [nM] | IC50 [2, 7] [µg/mL] | further results |
| --- | --- | --- | --- | --- |
| Oc1cccnc1O [Compound 1a] | > 10000 | > 10000 | – | Cytotoxicity to promastigote stage (in words) [1, 6]: inactive |
| N#Cc1cccc(-c2ccc(Cn3cccc(O)c3=S)cc2)c1 [Compound 5b] | – | 1700 ± 717 | > 10 | HDAC6 % inhibition at 10 µM (HDAC6): 44% ^† |
| Cc1cccc(-c2ccc(Cn3cccc(O)c3=S)cc2)c1 [Compound 8b] | 812 ± 286 | 2500 ± 1180 | > 10 | Cytotoxic activity against intra-macrophage amastigote (in words) [3]: inactive |
| O=c1c(O)cccn1Cc1ccccc1 [Compound 2a] | > 10000 | > 10000 | – | – |
| O=c1c(O)cccn1Cc1ccc(-c2ccccc2)cc1 [Compound 3a] | > 10000 | > 10000 | – | Cytotoxic activity against intra-macrophage amastigote (in words) [3]: moderate to good cytotoxic activities |
| CN(C)c1ccc(-c2ccc(Cn3cccc(O)c3=O)cc2)cn1 [Compound 11a] | > 10000 | > 10000 | – | – |
| Cc1ccccc1-c1ccc(Cn2cccc(O)c2=O)cc1 [Compound 9a] | > 10000 | > 10000 | – | – |
| Oc1cccn(Cc2ccccc2)c1=S [Compound 2b] | 457 ± 27 | 1270 ± 200 | > 10 | – |
| N#Cc1ccc(-c2ccc(Cn3cccc(O)c3=S)cc2)cc1 [Compound 4b] | 957 ± 159 | 2080 ± 459 | > 10 | Potency enhancement, intra-macrophage amastigote relative to axenic amastigote [3]: 5- to 25 fold |
| C[C@@H]1[C@H](O)[C@@H](C)/C=C/C=C/C=C/C=C/C=C/C=C/C=C/[C@H](O[C@@H]2O[C@H](C)[C@@H](O)[C@H](N)[C@@H]2O)C[C@@H]2O[C@](O)(C[C@@H](O)C[C@@H](O)[C@H](O)CC[C@@H](O)C[C@@H](O)CC(=O)O[C@H]1C)C[C@H](O)[C@H]2C(=O)O [Amphotericin B] | – | – | – | Cytotoxic activity against intra-macrophage amastigote (in words) [4]: potently cytotoxic; IC50 (in vitro): > 10 µg/mL; IC50 ([1]; Leishmania donovani, read-out: Promastigote IC50): 0.4 µg/mL (≈ 0.433 µM) |
| Cc1ccc(-c2ccc(Cn3cccc(O)c3=S)cc2)cc1 [Compound 7b] | 454 ± 42 | 800 ± 304 | > 10 | – |
| Cc1cccc(-c2ccc(Cn3cccc(O)c3=O)cc2)c1 [Compound 8a] | > 10000 | > 10000 | – | – |
| N=C(N)c1ccc(OCCCCCOc2ccc(C(=N)N)cc2)cc1 [Pentamidine, pentamidine] | – | – | – | Cytotoxic activity against intra-macrophage amastigote (in words) [4]: potently cytotoxic; IC50 (in vitro): > 10 µg/mL |
| Oc1cccn(Cc2cn(-c3ccccc3)nn2)c1=S [Compound 12b] | – | 1570 ± 1070 | > 10 | HDAC6 % inhibition at 10 µM (HDAC6): 41% ^† |
| Oc1cccn(Cc2ccc(-c3ccccc3)cc2)c1=S [Compound 3b] | 847 ± 188 | 4280 ± 1550 | > 10 | Potency enhancement, intra-macrophage amastigote relative to axenic amastigote [3]: 5- to 25 fold |
| N#Cc1ccccc1-c1ccc(Cn2cccc(O)c2=O)cc1 [Compound 6a] | > 10000 | > 10000 | – | – |

| Structure (SMILES) | IC50 (HDAC6) [nM] | IC50 (HDAC8) [nM] | IC50 [2, 7] [µg/mL] | further results |
| --- | --- | --- | --- | --- |
| Cc1ccccc1-c1ccc(Cn2cccc(O)c2=S)cc1 [Compound 9b] | 306 ± 69 | 3100 ± 1650 | > 10 | – |
| N#Cc1ccc(-c2ccc(Cn3cccc(O)c3=O)cc2)cc1 [Compound 4a] | > 10000 | > 10000 | – | Cytotoxicity to axenic amastigote (in words) [5, 8]: about equipotent to both stages of L. donovani; Cytotoxic activity against intra-macrophage amastigote (in words) [3]: moderately active |
| CN(C)c1ccc(-c2ccc(Cn3cccc(O)c3=S)cc2)cn1 [Compound 11b] | 2390 ± 458 | > 10000 | > 10 | – |
| CN1CCc2c(c3ccccc3n2Cc2ccc(C(=O)NO)cc2)C1 [Tubastatin A, reference compound] | – | – | > 10 | – |
| O=c1c(O)cccn1Cc1cn(-c2ccccc2)nn1 [Compound 12a] | > 10000 | > 10000 | – | – |
| N#Cc1cccc(-c2ccc(Cn3cccc(O)c3=O)cc2)c1 [Compound 5a] | > 10000 | > 10000 | – | Cytotoxic activity against intra-macrophage amastigote (in words) [3]: moderate to good cytotoxic activities |
| CN(C)c1ccc(-n2cc(Cn3cccc(O)c3=S)nn2)cc1 [Compound 13b] | 1020 ± 99 | 1870 ± 723 | > 10 | – |
| CN(C)c1ccc(-c2ccc(Cn3cccc(O)c3=O)cc2)cc1 [Compound 10a] | > 10000 | > 10000 | – | Cytotoxicity to axenic amastigote (in words) [5, 8]: about equipotent to both stages of L. donovani |
| Cc1ccc(-c2ccc(Cn3cccc(O)c3=O)cc2)cc1 [Compound 7a] | > 10000 | > 10000 | – | – |
| CN(C)c1ccc(-c2ccc(Cn3cccc(O)c3=S)cc2)cc1 [Compound 10b] | > 10000 | 2860 ± 944 | > 10 | Potency enhancement, intra-macrophage amastigote relative to axenic amastigote [3]: 5- to 25 fold |
| O=C(CCCCCCC(=O)Nc1ccccc1)NO [SAHA, suberoylanilide hydroxamic acid, reference compound] | – | – | – | Cytotoxicity to axenic amastigote (in words) [5]: non-toxic; Cytotoxicity to promastigote stage (in words) [1]: minimal effect |
| CN(C)c1ccc(-n2cc(Cn3cccc(O)c3=O)nn2)cc1 [Compound 13a] | > 10000 | > 10000 | – | Cytotoxic activity against intra-macrophage amastigote (in words) [3]: moderate to good cytotoxic activities |
| N#Cc1ccccc1-c1ccc(Cn2cccc(O)c2=S)cc1 [Compound 6b] | 372 ± 35 | 1910 ± 771 | > 10 | Cytotoxic activity against intra-macrophage amastigote (in words) [3]: inactive |
| COc1ccc(Cn2ccc3ccc(C(=O)NO)cc32)cc1 [PCI-34051, reference compound] | – | – | – | IC50 [2]: > 10 µg/mL; Cytotoxic activity against intra-macrophage amastigote (in words) [3]: inactive; Cytotoxicity to promastigote stage (in words) [1, 6]: minimal effect |
| Oc1ccc[nH]c1=S [Compound 1b] | 681 ± 110 | 3680 ± 1200 | > 10 | Cytotoxicity to promastigote stage (in words) [1, 6]: weakly cytotoxic |

Source: publication PMC4225773 (Bioorganic & medicinal chemistry letters, 2014)
